# Patent publication US10538564B2, “Peptides having osteoblast growth-promoting activity and use thereof” (PHARMA FOODS INTERNATIONAL CO., LTD., priority 2014, dated 2020)
# No end group written: not given here.
# Key:
# [1] = tested on: Sprague-Dawley male rats fed with a low-calcium diet; experiment: Bone density recovery test after low-calcium diet (DXA, pQCT); assay type: in vivo, rat; conditions: oral 1, 10 or 100 mg/kg·day for seven days after one week low-calcium diet; vs control
# Description: Sprague-Dawley male rats at three weeks old were initially fed with a low-calcium diet (containing 0.05% calcium carbonate) for one week, and then fed with a normal diet (containing 1.2% calcium carbonate). The synthetic peptide (No. 1) or physiological saline (control) was administered to the rats by oral gavage using a gastric tube once a day for seven days. The dose of the synthetic peptide was 1, 10 or 100 mg/kg·day. After the oral administration on day 7, the rats were euthanized by bloodletting under anesthesia, and the femurs and tibiae were harvested. The bone volume and bone morphology of the tibiae and femurs were measured by dual energy x-ray absorptiometry (DXA) and peripheral quantitative computed tomography (pQCT).
# [2] = tested on: Crlj:W1 male rats at four weeks old; experiment: Bone formation in growth cartilage and primary cancellous bone, 7-day oral administration; assay type: in vivo, rat; conditions: seven days
# Description: One of the synthetic peptides (No. 1) or water for injection (control) was administered to Crlj:W1 male rats at four weeks old by oral gavage using a gastric tube once a day for seven days (n=3 in each group). The dose of the synthetic peptide (No. 1) was 100 mg/kg-day. As a positive control, human growth hormone (hGH) (Norditropin, Standard Commodity Classification No. of Japan: 872412) was subcutaneously administered at 500 μg/kg-day once a day for seven days. As fluorescent labels for the site of bone formation, tetracycline (20 mg/kg) was subcutaneously administered on day 4 after the administration of the peptide or control, and then calcein (10 mg/kg) was subcutaneously administered on day 6 after the administration of the peptide or control. After the administration of the test sample on day 7, the rats were kept under fasting conditions. Twenty-four hours later, the blood was collected. The rats were then euthanized by bloodletting under anesthesia, and the tibiae were harvested (see FIG. 16). Non-decalcified specimens of the proximal tibiae were prepared and photographed under a fluorescent microscope (BX-53, OLYMPUS). The bone morphology was measured using a morphometry system (Histometry RT digitizer, System Supply Co., Ltd.) and an analysis software (CSS-840 cancellous bone morphometry version, System Supply Co., Ltd.). The longitudinal growth rate (Lo.G.R.) in the growth cartilage, which is the increase in the height per day, was determined by measuring the distance between the tetracycline label and the calcein label, and dividing the distance by the administration interval between the fluorescent labels (two days).
# The increase in the level of IGF-1, which is related to growth of the bones and muscles in a growth phase, may contribute to the bone growth-promoting effect.
# [3] = tested on: Crlj:W1 male rats at four weeks old; experiment: Bone formation in growth cartilage and secondary cancellous bone, 21-day oral administration; assay type: in vivo, rat; conditions: 21 days
# Description: One of the synthetic peptides (No. 1) or water for injection (control) was administered to Crlj:W1 male rats at four weeks old by oral gavage using a gastric tube once a day for 21 days (n=3 in each group). The dose of the synthetic peptide was 100 mg/kg·day. As a positive control, human growth hormone (hGH) (Norditropin, Standard Commodity Classification No. of Japan: 872412) was subcutaneously administered at 500 μg/kg·day once a day for 21 days. As fluorescent labels for the site of bone formation, tetracycline (20 mg/kg) was subcutaneously administered on day 18 after the administration of the peptide or control, and then calcein (10 mg/kg) was subcutaneously administered on day 20 after the administration of the peptide or control. After the administration of the test sample on day 21, the rats were kept under fasting conditions. Twenty-four hours later, the rats were euthanized by bloodletting under anesthesia, and the tibiae were harvested (see FIG. 20). Non-decalcified specimens of the proximal tibiae were prepared and photographed under a fluorescent microscope (BX-53, OLYMPUS). The bone morphology was measured using a morphometry system (Histometry RT digitizer, System Supply Co., Ltd.) and an analysis software (CSS-840 cancellous bone morphometry version, System Supply Co., Ltd.). The longitudinal growth rate (Lo.G.R.) in the epiphyseal cartilage, which is the increase in the height per day, was determined by measuring the distance between the tetracycline label and the calcein label, and dividing the distance by the administration interval between the fluorescent labels (two days).
# [4] = tested on: mouse osteoblast-like cell line MC3T3-E1 Subclone-4; experiment: Osteoblast growth-promoting activity (cell counting method); assay type: cell-based; conditions: synthetic peptides at 2.5, 5 or 10 μg/mL; 72 hours; relative to PBS (−) group taken as 100; FIGS. 9 to 12
# Description: A mouse osteoblast-like cell line MC3T3-E1 Subclone-4 (ATCC No. CRL-2593) was cultured in α-MEM medium supplemented with 10% FBS at 5% CO2 and 95% air at 37° C. until confluent. The cells were collected by trypsinization. The collected cells were suspended at 1×10^4 cells/mL in fresh α-MEM medium. One mL of the cell suspension was seeded in each well of a 24-well plate, and precultured at 5% CO2 and 95% air at 37° C. On the next day, the medium was replaced with medium prepared by well mixing 50 μL of a sample or PBS (−) with 950 μL of fresh α-MEM medium supplemented with CaCl2 to a Ca concentration of 500 μg/mL. The cells were further cultured for 72 hours. The growth activity of osteoblasts was measured by the cell counting method. The activity of the sample for promoting the growth of osteoblasts was expressed in terms of the relative value, with the growth rate in the PBS (−) group taken as 100. Osteoblast growth-promoting activity was determined for the synthetic peptides in the same manner as in Example 1. The synthetic peptides were added at 2.5, 5 or 10 μg/mL per well. As a control, PBS (−) was added. The osteoblast growth-promoting activity was expressed in terms of the relative value, with the growth rate in the PBS (−) group taken as 100.
sequence,measurement,setting,value
VNPESEEE [No. 1],bone density of the tibiae,[1],tended to be higher in the synthetic peptide administration group than in the control group
same,length of the tibiae,[1],tended to be higher in the synthetic peptide administration group than in the control group
same,weight of the tibiae,[1],tended to be higher in the synthetic peptide administration group than in the control group
same,serum level of insulin-like growth factor (IGF-1),"[2]; No. 1 oral 100 mg/kg-day, hGH 500 μg/kg-day subcutaneous, ELISA, FIG. 19",higher than that in the control group
same,"longitudinal growth rate (Lo.G.R.) in the growth cartilage, vs control group","[2]; No. 1 oral 100 mg/kg-day, hGH 500 μg/kg-day subcutaneous, FIG. 17",significant promotion of bone growth as compared with the control group
same,"longitudinal growth rate (Lo.G.R.) in the growth cartilage, vs hGH administration group","[2]; oral 100 mg/kg-day, FIG. 17",significant as compared with the hGH administration group
same,incorporation of the fluorescent labels into the primary cancellous bone,"[2]; oral 100 mg/kg-day, vs control group and hGH group, FIG. 18",high frequency of incorporation of the fluorescent labels into the primary cancellous bone
same,"longitudinal growth rate (Lo.G.R.) in the epiphyseal cartilage, vs control group","[3]; No. 1 oral 100 mg/kg·day, hGH 500 μg/kg·day subcutaneous, FIG. 21",significant promotion of bone growth as compared with the control group
same,"longitudinal growth rate (Lo.G.R.) in the epiphyseal cartilage, vs hGH administration group","[3]; oral 100 mg/kg·day, FIG. 21",significant as compared with the hGH administration group
same,secondary cancellous bone volume (bone volume/tissue volume (BV/TV)),"[3]; oral 100 mg/kg·day, FIG. 22",higher secondary cancellous bone volume than the control group and the hGH administration group
same,osteoblast surface/bone surface (Ob.S/BS),"[3]; oral 100 mg/kg·day, FIG. 23",high percentage
same,osteoclast surface/Bone surface (Oc.S/BS),"[3]; oral 100 mg/kg·day, FIG. 24",low percentage
same,osteoblast growth-promoting activity,[4],promoted the growth of osteoblasts in a concentration-dependent manner
